From patent US20090100532A1, “TRANSGENIC MICE EXPRESSING HYPERSENSITIVE NICOTINIC RECEPTORS” (CALIFORNIA INSTITUTE OF TECHNOLOGY, priority 2007, published 2009)
“And” between values parts separate entries of the source, which are not always exact repeats. Equal values may be shown once. Read-outs that look alike come from different tables or passages of the source.

Assays:
nAChRs = assay type: biochemical, mouse; conditions: for EC50: read-out: EC50 (±SEM), Total DA release
Procedure: (§1) Neurotransmitter Release from Striatal Synaptosomes. After a mouse was sacrificed by cervical dislocation, its brain was removed and placed immediately on an ice-cold platform and brain regions were dissected. Tissues from each mouse were homogenized in 0.5 ml of ice-cold 0.32 M sucrose buffered with 5 mM HEPES, pH 7.5. A crude synaptosomal pellet was prepared by centrifugation at 12,000 g for 20 min. The pellets were resuspended in “uptake buffer”: 128 mM NaCl, 2.4 mM KCl, 3.2 mM CaCl2, 1.2 mM KH2PO4, 1.2 mM MgSO4, 25 mM HEPES, pH 7.5, 10 mM glucose. For DA uptake, buffer was supplemented with 1 mM ascorbic acid and 0.01 mM pargyline, whereas for GABA uptake, buffer was supplemented with 1 mM aminooxyacetic acid. For [^3H]GABA uptake, synaptosomes were incubated for 10 min at 37° C. […] For DA uptake, synaptosomes were incubated at 37° C. in uptake buffer for 10 min before addition of 100 nM [^3H]dopamine (1 μCi for every 0.2 ml of synaptosomes), and the suspension was incubated for an additional 5 min.
(§2) All experiments were conducted at room temperature using methods described previously (Nashmi et al., 2007; Salminen et al., 2007) with modifications for collection into 96-well plates. In brief, aliquots of synaptosomes (80 μl) were distributed onto filters and perfused with buffer (uptake buffer containing 0.1% bovine serum albumin and 1 μM atropine with 1 μM nomifensine (for DA release) or 0.1 μM NNC-711 [1-(2-(((diphenylmethylene)amino)oxy)ethyl)-1,2,5,6-tetrahydro-3-pyridinecarboxylic acid hydrochloride]) (for GABA release) at 0.7 ml/min for 10 min, or buffer for 5 min followed by buffer with 50 nM αCtxMII. […] Fractions (−0.1 ml) were collected for 4 min into 96-well plates every 10 sec starting from 1 min before stimulation, using a Gilson FC204 fraction collector with a multicolumn adapter (Gilson, Inc.; Middleton, Wis.). Radioactivity was determined by scintillation counting using a 1450 MicroBeta Trilux scintillation counter (Perkin Elmer Life Sciences-Wallac Oy; Turku, Finland) after addition of 0.15 ml Optiphase ‘SuperMix’ scintillation cocktail. Instrument efficiency was 40%.
(§3) Data were analyzed using SigmaPlot 5.0 for DOS. Perfusion data were plotted as counts per minute versus fraction number. Fractions collected before and after the peak were used to calculate baseline as a single exponential decay. The calculated baseline was subtracted from the experimental data. Fractions that exceeded baseline by 10% or more were sunmmed to give total released cpm and then normalized to baseline to give units of release [(cpm-baseline)/baseline]. Agonist dose response data were fit to the Hill equation.

WT mice = conditions: mouse, in vivo
Procedure: (§4) Locomotor Activity. Mice used to study locomotion were eight to sixteen weeks old by the beginning of an experiment, and were back-crossed to C57BL/6 at least three times. […] Mouse horizontal locomotor activity was measured with an infrared photobeam activity cage system (San Diego Instruments; San Diego, Calif.). Ambulation events were recorded when two contiguous photobeams were broken in succession. Acute locomotor activity in response to nicotinic ligands or other agents was studied by recording ambulation events during four 15 sec intervals per minute for a designated number of minutes. For most experiments, groups of eight mice were placed in the activity cages (18×28 cm) and their baseline level of activity was recorded for eight minutes. Mice were removed from their cage, injected (100 μl per 25 g body mass), and returned to the cage within 15 sec. […] For generation of locomotor activity concentration-response relationship profiles, a group of mice was administered saline and, after five to eight days off, each successive dose of drug. […] For 48 h home cage monitoring, mice were isolated in their own cage and habituated to the test room and cage for 24 h. Following this, locomotor activity was recorded in 15 min intervals for 48 h.

α6^L9′S mice = conditions: mouse, in vivo
Procedure: as §4

α3β4β3 receptors = target: T1, α3β4β3 receptors (UniProt P12392+P32297); test: Two-electrode voltage clamp, X. laevis oocytes, α3β4β3; assay type: cell-based
T1 construct: expressed in transfected cells; host or cells: Xenopus laevis oocytes injected with cRNA
T1 sequence (P32297 32-505): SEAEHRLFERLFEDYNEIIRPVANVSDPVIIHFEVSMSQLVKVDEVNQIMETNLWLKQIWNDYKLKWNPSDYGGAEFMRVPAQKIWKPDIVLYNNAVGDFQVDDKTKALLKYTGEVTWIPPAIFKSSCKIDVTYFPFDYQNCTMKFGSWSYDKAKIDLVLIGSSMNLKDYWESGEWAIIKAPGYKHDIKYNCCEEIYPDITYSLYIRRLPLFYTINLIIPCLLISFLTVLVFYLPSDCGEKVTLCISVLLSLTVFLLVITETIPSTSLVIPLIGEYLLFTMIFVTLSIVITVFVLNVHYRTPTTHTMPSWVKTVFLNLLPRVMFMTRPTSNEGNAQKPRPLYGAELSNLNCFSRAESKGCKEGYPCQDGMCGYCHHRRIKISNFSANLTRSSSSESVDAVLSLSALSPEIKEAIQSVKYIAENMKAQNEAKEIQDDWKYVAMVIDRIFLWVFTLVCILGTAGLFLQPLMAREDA
T1 sequence (P12392 21-495): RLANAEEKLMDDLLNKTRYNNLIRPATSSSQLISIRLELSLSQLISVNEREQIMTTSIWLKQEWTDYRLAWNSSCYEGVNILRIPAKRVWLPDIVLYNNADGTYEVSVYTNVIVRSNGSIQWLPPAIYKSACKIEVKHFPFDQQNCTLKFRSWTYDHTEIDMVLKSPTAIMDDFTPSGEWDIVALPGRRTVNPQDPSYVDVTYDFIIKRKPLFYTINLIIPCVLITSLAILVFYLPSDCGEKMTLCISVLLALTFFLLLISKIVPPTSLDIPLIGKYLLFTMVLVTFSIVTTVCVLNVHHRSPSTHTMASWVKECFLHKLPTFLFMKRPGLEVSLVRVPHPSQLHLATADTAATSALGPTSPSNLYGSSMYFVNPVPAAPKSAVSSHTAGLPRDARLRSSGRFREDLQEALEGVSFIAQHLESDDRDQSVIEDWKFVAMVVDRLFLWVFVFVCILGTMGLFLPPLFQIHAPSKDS
T1 sequence (Q8BMN3 31-464 partner): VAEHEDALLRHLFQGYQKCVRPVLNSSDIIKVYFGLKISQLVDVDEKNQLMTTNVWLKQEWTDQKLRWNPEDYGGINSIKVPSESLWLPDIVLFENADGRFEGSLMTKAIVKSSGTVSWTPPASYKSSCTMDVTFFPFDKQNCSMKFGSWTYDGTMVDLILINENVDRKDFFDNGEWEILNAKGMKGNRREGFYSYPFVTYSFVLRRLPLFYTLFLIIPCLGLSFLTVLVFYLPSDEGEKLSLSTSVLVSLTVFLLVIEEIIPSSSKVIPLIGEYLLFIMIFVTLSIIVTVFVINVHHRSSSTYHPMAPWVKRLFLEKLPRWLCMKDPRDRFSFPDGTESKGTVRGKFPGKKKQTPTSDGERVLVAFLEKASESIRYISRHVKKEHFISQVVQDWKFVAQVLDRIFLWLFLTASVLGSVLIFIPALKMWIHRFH
Procedure: (§5) Two-Electrode Voltage-Clamp Electrophysiology. Stage V to VI X. laevis oocytes were isolated as described previously (Quick and Lester, Ion Channels of Excitable Cells, Narahashi T ed., pp 261-279, 1994). Stock RNAs were diluted into diethyl pyrocarbonatetreated water and injected 1 day after isolation. RNA was injected in a final volume of 50 nl per oocyte using a digital microdispenser (Drummond Scientific, Broomall, Pa.). After injection, oocytes were incubated in ND-96 solution (96 mM NaCl, 2 mM KCl, 1 mM CaCl2, 1 mM MgCl2, and 5 mM HEPES/NaOH, pH 7.6) supplemented with 50 μg/ml gentamicin and 2.5 mM sodium pyruvate. After 1 to 4 days for nAChR expression, oocytes were used for recording or confocal microscopy.
(§6) Agonist-activated nicotinic receptor responses were measured by two-electrode voltage-clamp recording using a GeneClamp 500 (Molecular Devices, Sunnyvale, Calif.) voltage clamp. Electrodes were constructed from Kwik-Fil borosilicate glass capillary tubes (1B150F-4; WPI, Sarasota, Fla.) using a programmable microelectrode puller (P-87; Sutter Instrument Company, Novato, Calif.). The electrodes had tip resistances of 0.8 to 2.0 MΩ after filling with 3 M KCl. […]

α4Yβ2 receptors = assay type: cell-based, mouse
α3β4 receptors = target: T2, α3β4 receptors (UniProt P12392+P32297); test: Two-electrode voltage clamp, X. laevis oocytes, α3β4; assay type: cell-based
T2 construct: expressed in transfected cells; host or cells: Xenopus laevis oocytes injected with cRNA
T2 sequence (P32297 32-505): as the sequence (P32297 32-505) above
T2 sequence (P12392 21-495): as the sequence (P12392 21-495) above
Procedure: as §5, §6

[1] = target: tonically active α6^L9′S channels in VTA DA neurons (Mus musculus, UniProt Q9ERK7+Q9R0W9, L280S); assay type: cell-based
Sequence of tonically active α6^L9′S channels in VTA DA neurons (Q9ERK7 whole entry, looked up, stated change not applied): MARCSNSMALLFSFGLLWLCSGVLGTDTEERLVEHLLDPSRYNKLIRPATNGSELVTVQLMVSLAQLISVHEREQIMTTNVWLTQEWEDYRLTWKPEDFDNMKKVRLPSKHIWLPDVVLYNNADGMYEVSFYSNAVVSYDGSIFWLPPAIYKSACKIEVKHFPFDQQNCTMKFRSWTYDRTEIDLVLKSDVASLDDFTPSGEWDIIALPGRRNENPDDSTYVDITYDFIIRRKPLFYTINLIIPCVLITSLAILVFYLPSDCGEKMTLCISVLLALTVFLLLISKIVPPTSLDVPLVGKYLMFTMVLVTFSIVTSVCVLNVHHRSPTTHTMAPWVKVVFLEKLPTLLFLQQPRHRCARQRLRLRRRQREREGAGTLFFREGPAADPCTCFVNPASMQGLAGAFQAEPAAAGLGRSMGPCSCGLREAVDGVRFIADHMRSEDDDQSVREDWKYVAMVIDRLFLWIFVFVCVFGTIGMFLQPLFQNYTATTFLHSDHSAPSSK
Sequence of tonically active α6^L9′S channels in VTA DA neurons (Q9R0W9 whole entry, looked up, stated change not applied): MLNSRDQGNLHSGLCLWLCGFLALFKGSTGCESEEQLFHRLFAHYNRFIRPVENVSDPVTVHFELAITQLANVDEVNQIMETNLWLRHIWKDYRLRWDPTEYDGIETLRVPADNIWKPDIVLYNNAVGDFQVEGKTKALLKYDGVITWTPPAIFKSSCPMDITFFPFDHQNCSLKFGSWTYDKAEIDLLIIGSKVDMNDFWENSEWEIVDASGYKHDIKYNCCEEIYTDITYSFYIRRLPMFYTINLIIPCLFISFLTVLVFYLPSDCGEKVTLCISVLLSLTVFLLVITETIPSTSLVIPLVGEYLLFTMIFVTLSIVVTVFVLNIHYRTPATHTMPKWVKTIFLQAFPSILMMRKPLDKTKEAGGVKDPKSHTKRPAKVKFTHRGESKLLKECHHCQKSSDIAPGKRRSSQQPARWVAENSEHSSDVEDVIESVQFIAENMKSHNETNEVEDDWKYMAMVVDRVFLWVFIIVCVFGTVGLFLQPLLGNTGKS

[2] = target: hypersensitive nicotinic receptors in α6L9′S VTA DA neurons (Mus musculus, UniProt Q9ERK7+Q9R0W9, L280S); assay type: cell-based
Sequence of hypersensitive nicotinic receptors in α6L9′S VTA DA neurons (Q9ERK7 whole entry, looked up, stated change not applied): as the sequence (Q9ERK7 whole entry, looked up, stated change not applied) above
Sequence of hypersensitive nicotinic receptors in α6L9′S VTA DA neurons (Q9R0W9 whole entry, looked up, stated change not applied): as the sequence (Q9R0W9 whole entry, looked up, stated change not applied) above

[3] = tested on: striatal (ST and OT combined) synaptosomes
Procedure: as §1, §2, §3

α4β2* (non-α6) nAChRs = target: T3, α4β2* (non-α6) nAChRs (Mus musculus, UniProt O70174+Q9ERK7); test: biochemical; assay type: biochemical; conditions: for EC50: read-out: EC50 (±SEM), MII-resistant DA release
T3 construct: from tissue; host or cells: striatal / olfactory tubercle synaptosomes of WT and α6L9′S mice
T3 sequence (Q9ERK7 26-501): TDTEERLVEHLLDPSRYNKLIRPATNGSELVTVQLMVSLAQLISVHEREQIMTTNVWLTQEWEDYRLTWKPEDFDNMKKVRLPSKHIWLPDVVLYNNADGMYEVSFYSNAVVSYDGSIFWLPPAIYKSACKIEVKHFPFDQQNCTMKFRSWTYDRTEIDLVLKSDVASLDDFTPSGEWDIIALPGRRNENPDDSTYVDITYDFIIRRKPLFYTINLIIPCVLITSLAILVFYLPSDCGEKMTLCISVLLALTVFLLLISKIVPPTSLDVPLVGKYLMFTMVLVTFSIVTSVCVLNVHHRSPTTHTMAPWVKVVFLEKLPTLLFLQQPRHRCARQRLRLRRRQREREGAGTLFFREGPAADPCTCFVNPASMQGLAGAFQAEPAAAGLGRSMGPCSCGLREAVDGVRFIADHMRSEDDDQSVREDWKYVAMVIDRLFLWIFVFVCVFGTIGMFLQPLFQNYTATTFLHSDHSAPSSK
T3 sequence (O70174 31-629): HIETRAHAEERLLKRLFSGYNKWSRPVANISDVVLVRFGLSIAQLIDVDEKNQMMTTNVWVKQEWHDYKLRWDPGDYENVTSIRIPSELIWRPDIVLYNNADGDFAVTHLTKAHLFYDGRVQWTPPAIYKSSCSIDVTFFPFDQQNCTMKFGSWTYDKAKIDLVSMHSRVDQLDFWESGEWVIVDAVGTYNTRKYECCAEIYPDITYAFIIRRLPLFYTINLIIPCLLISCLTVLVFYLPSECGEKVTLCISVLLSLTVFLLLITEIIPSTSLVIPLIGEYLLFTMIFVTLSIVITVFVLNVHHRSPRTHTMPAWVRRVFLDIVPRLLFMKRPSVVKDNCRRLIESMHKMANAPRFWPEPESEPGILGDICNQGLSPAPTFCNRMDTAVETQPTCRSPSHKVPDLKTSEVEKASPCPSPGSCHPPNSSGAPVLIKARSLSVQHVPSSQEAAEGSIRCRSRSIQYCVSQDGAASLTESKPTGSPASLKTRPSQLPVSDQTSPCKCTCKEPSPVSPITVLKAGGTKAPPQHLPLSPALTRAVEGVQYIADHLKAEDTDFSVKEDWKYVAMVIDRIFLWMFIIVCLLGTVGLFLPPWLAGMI
Procedure: as §1, §2, §3

α6* nAChRs [4] = target: T4, α6* nAChRs (Mus musculus, UniProt Q9ERK7+Q9R0W9); test: biochemical; assay type: biochemical
T4 construct: from tissue
T4 sequence (Q9R0W9 31-494): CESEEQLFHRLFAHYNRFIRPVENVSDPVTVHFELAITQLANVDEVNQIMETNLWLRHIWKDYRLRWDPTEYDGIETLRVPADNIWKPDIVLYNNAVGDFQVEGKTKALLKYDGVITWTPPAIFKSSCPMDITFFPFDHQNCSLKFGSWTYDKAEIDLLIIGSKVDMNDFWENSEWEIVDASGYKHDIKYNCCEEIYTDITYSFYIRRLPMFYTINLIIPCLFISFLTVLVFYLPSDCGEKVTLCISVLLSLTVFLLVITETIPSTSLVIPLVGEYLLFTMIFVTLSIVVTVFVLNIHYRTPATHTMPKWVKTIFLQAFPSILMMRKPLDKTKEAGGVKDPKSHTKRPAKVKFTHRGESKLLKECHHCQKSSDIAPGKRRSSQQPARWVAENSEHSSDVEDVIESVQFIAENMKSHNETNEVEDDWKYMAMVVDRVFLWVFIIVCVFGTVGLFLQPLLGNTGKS
T4 sequence (Q8BMN3 31-464, further chain): as the sequence (Q8BMN3 31-464 partner) above
T4 sequence (Q9ERK7 26-501): as the sequence (Q9ERK7 26-501) above
Procedure: as §1, §2, §3

α6* nAChRs [5] = target: T5, α6* nAChRs (Mus musculus, UniProt Q9ERK7+Q9R0W9, L280S); test: biochemical; assay type: biochemical
T5 construct: from tissue
T5 sequence (Q9ERK7 26-501, stated change not applied): as the sequence (Q9ERK7 26-501) above
T5 sequence (Q8BMN3 31-464, further chain): as the sequence (Q8BMN3 31-464 partner) above
T5 sequence (Q9R0W9 31-494 L280S): as the sequence (Q9R0W9 31-494) above, with L250S counted along it
Procedure: as §1, §2, §3

N2a cells = test: TIRF imaging of actin-containing membrane protrusions in N2a cells; assay type: cell-based, mouse
Procedure: TIRF Microscopy. N2a cells cultured in glass-bottomed, polyethylenimine-coated imaging dishes were transfected with cDNA mixtures as described above. Cells, superfused with the same imaging solution used for confocal microscopy, were imaged 18 to 24 h after transfection to minimize overexpression artifacts. TIRF images were obtained with an inverted microscope (Olympus IX71; Olympus America, Inc., Center Valley, Pa.) equipped with a 488-nm air-cooled argon laser (P/N IMA111040ALS; Melles Griot, Carlsbad, Calif.). Laser output was controlled with a UNIBLITZ shutter system and drive unit (P/N VMM-D1; Vincent Associates, Rochester, N.Y.) equipped with a Mitutoyo (Mitutoyo America, City of Industry, CA) micrometer to control TIRF evanescent field illumination. TIRF imaging was carried out with an Olympus PlanApo 100×1.45 NA oil objective, and images were captured with a 16-bit resolution Photometrics Cascade charge-coupled device camera (Photometrics, Tucson, Ariz.) controlled by SlideBook 4.0 imaging software (Intelligent Imaging Innovations, Santa Monica, Calif.).

LC neurons (α6* nAChRs) = assay type: cell-based, mouse

## c1cncc(C2CC3CCN2CC3)c1 (racemic) [TC 2429]
nAChRs
  %10 μM nic, Total DA release: 49.0% and 73.40% and 71.00%
  Rmax (±SEM), Total DA release: 8.68 ± 1.25 and 12.87 ± 0.37 and 11.86 ± 0.41
WT mice
  locomotor suppression: did not produce locomotor suppression
α6^L9′S mice
  locomotor activity: stimulated locomotor activity

## CC(=O)OCC[N+](C)(C)C [ACh, acetylcholine]
α3β4β3 receptors
  EC50: 230000 ± 22000 nM
α4Yβ2 receptors
  voltage-clamped responses: 200-400 pA
α3β4 receptors
  EC50: 165000 ± 9000 nM

## N#Cc1cc2c(cc1[N+](=O)[O-])=NC(=O)C(=O)N=2 [CNQX, 6-cyano-7-nitroquinoxaline-2,3-dione]
[1]
  effect on increased channel/membrane noise: No effect
[2]
  block of whole-cell responses to 1 μM nicotine: unaffected

## CO[C@H]1CC=C2CCN3CCC4=C(CC(=O)OC4)[C@]23C1 [DHβE, dihydro-β-erythroidine]
[1]
  effect on increased channel/membrane noise: completely eliminated
[2]
  block of whole-cell responses to 1 μM nicotine: 100%

## [K+] [K^+]
[3]
  GABA release stimulated by 20 mM K^+: 8.31 ± 0.34 and 8.24 ± 0.45 and 8.43 ± 0.50

## CCN1C[C@]2(COC(=O)c3ccccc3N3C(=O)C[C@H](C)C3=O)CC[C@H](OC)[C@@]34[C@@H]5C[C@H]6[C@H](OC)[C@@H]5[C@](O)(C[C@@H]6OC)[C@@](O)([C@@H](OC)[C@H]23)[C@@H]14 [MLA, methyllycaconitine]
[2]
  block of whole-cell responses to 1 μM nicotine: 0%

## CNCC/C=C/c1cccnc1 [TC 2403]
nAChRs
  %10 μM nic, Total DA release: 74.11% and 54.47% and 51.19%
  Rmax (±SEM), Total DA release: 10.72 ± 0.61 and 10.57 ± 0.74
  EC50: 700 nM and 820 nM
nAChRs; ST/OT, WT
  Rmax (±SEM), Total DA release: 12.37 ± 0.93
  EC50: 2360 ± 560 nM
nAChRs; striatal synaptosomes
  potency and efficacy for DA release, α6^L9′S relative to WT: slightly more potent and had equivalent efficacy
α6^L9′S mice
  locomotor activity: slight locomotor activation
α4β2* (non-α6) nAChRs
  %10 μM nic, MII-resistant DA release: 81.78% and 81.48% and 90.64%
  Rmax (±SEM), MII-resistant DA release: 7.26 ± 0.29 and 9.3 ± 0.33
  agonist character at α4β2 for DA release (vs. nicotine): full agonist (vs. nicotine)
  EC50: 3530 nM and 4030 nM
α4β2* (non-α6) nAChRs; ST/OT, WT
  Rmax (±SEM), MII-resistant DA release: 12.32 ± 0.26
  EC50: 2850 ± 350 nM
α6* nAChRs [4]
  %10 μM nic, MII-sensitive DA release: 28.83%
  agonist character at α6β2* for DA release (vs. nicotine): no activity
α6* nAChRs [4]; ST/OT, WT
  Rmax (±SEM), MII-sensitive DA release: 0.47 ± 0.2
α6* nAChRs [4]; ST/OT, WT, read-out: EC50 (±SEM), MII-sensitive DA release
  EC50: 60 ± 180 nM
α6* nAChRs [5]
  %10 μM nic, MII-sensitive DA release: 44.85% and 33.01%
  Rmax (±SEM), MII-sensitive DA release: 4.83 ± 0.15 and 3.43 ± 0.32
  agonist character at the αCtxMII-sensitive receptor: partial agonist
α6* nAChRs [5]; read-out: EC50 (±SEM), MII-sensitive DA release
  EC50: 190 nM and 100 nM

## NC1=N[C@H](O)[C@H]2[C@H]3O[C@]4(O)O[C@@H]([C@@H](O)[C@@]2(N1)[C@@H]4O)[C@]3(O)CO [TTX, tetrodotoxin]
[1]
  effect on increased channel/membrane noise: No effect
[2]
  block of whole-cell responses to 1 μM nicotine: unaffected

## C/C1=C/C(=O)O[C@@H]2C[C@@H](CC[C@H](C)/C=C\CC1)O[C@@](O)([C@@H]1CSC(=O)N1)C2 [latrunculin B]
N2a cells
  effect on actin-containing membrane protrusions: destroyed

## CNC1(C)C2CCC(C2)C1(C)C (stereo not drawn) [mecamylamine]
α6^L9′S mice
  effect of antagonist pre-injection on nicotine-stimulated locomotor response: strong block of the locomotor response

## COc1cc2nc(N3CCN(C(=O)c4ccco4)CC3)nc(N)c2cc1OC [prazosin]
α6^L9′S mice
  effect of antagonist pre-injection on nicotine-stimulated locomotor response: no change was found

## CCN1CCCC1CNC(=O)c1cc(S(N)(=O)=O)ccc1OC (stereo not drawn) [sulpiride]
α6^L9′S mice
  effect of antagonist pre-injection on nicotine-stimulated locomotor response: partially inhibited
VTA DA neurons
  baseline firing of VTA DA cells: modestly increase baseline firing
  effect on nicotine-induced increases in firing: did not affect

## COC(=O)[C@@H]1[C@H]2C[C@H]3c4[nH]c5ccccc5c4CCN3C[C@@H]2CC[C@@H]1O [yohimbine]
α6^L9′S mice
  effect of antagonist pre-injection on nicotine-stimulated locomotor response: no change was found

## picrotoxin
[1]
  effect on increased channel/membrane noise: No effect

## α-conotoxin MII [αCtxMII]
LC neurons (α6* nAChRs)
  inhibition of nicotine responses in LC neurons: sensitive to αCtxMII
[1]
  effect on increased channel/membrane noise: completely eliminated
[2]
  block of whole-cell responses to 1 μM nicotine: > 90%
  persistence of block after washout: 30 min
